Data: US6339042B1, “Herbicidal N-cyclohexadienyl heteroaryloxyacetamides” (American Cyanamid Co., priority 1999, dated 2002)

What was measured:
Details in all cases: three weeks after treatment
[1] = tested on: Amaranthus tuberculatus; test: Pre-emergence herbicidal evaluation, AMATA; format: in vivo
Text: (§1) The treated pots are then placed on greenhouse benches, watered and cared for in accordance with conventional greenhouse procedures.

[2] = tested on: Alopecurus myosuroides; test: Pre-emergence herbicidal evaluation, ALOMY; format: in vivo
Text: as §1

[3] = tested on: Apera spica venti; test: Pre-emergence herbicidal evaluation, APESV; format: in vivo
Text: as §1

[4] = tested on: Echinochloa crus-galli; test: Pre-emergence herbicidal evaluation, ECHCG; format: in vivo
Text: as §1

[5] = tested on: Setaria viridis; test: Pre-emergence herbicidal evaluation, SETVI; format: in vivo
Text: as §1

[6] = tested on: Lolium perenne; test: Pre-emergence herbicidal evaluation, LOLPE; format: in vivo
Text: as §1

[7] = tested on: Triticum aestivum; test: Pre-emergence herbicidal evaluation, TRZAW; format: in vivo
Text: as §1

[8] = tested on: Hordeum vulgare; test: Pre-emergence herbicidal evaluation, HORVW; format: in vivo
Text: as §1

[9] = tested on: Zea mays; test: Pre-emergence herbicidal evaluation, ZEAMX; format: in vivo
Text: as §1

[10] = tested on: Glycine max; test: Pre-emergence herbicidal evaluation, GLXMA; format: in vivo
Text: as §1

[11] = tested on: Oryza sativum; test: Pre-emergence herbicidal evaluation, ORYSA; format: in vivo
Text: as §1

[12] = tested on: Amaranthus tuberculatus; test: Post-emergence herbicidal evaluation, AMATA; format: in vivo
[13] = tested on: Galium aparine; test: Post-emergence herbicidal evaluation, GALAP
[14] = tested on: Alopecurus myosuroides; test: Post-emergence herbicidal evaluation, ALOMY
[15] = tested on: Apera spica venti; test: Post-emergence herbicidal evaluation, APESV
[16] = tested on: Echinochloa crus-galli; test: Post-emergence herbicidal evaluation, ECHCG
[17] = tested on: Setaria viridis; test: Post-emergence herbicidal evaluation, SETVI
Method: The compounds of the invention are tested for pre- and post-emergence herbicidal activity.
(§2) Each pot is examined three weeks after treatment and phytotoxicity is assessed according to the rating system set forth below.
(§3) These acetone solutions are diluted with water and the resulting formulations applied at dosage levels equivalent of about 0.4 to 0.1 kg per hectare of test compound per pot. After spraying the plants are placed on greenhouse benches and are cared for in the usual manner, commensurate with conventional greenhouse practices.

[18] = tested on: Lolium perenne; test: Post-emergence herbicidal evaluation, LOLPE
[19] = tested on: Triticum aestivum; test: Post-emergence herbicidal evaluation, TRZAW
[20] = tested on: Hordeum vulgare; test: Post-emergence herbicidal evaluation, HORVW
[21] = tested on: Zea mays; test: Post-emergence herbicidal evaluation, ZEAMX
[22] = tested on: Glycine max; test: Post-emergence herbicidal evaluation, GLXMA
Method: as §2, §3

[23] = tested on: Oryza sativum; test: Post-emergence herbicidal evaluation, ORYSA

CC1=CC(N(C)C(=O)COc2nnc(C(F)(F)C(F)(F)F)s2)=CC(C)(C)C1 [Example 7]
phytotoxicity rating AMATA ([1]; 0.100 kg/ha): 0 (0 - No effect) | phytotoxicity rating AMATA ([1]; 0.200 kg/ha): 0 (0 - No effect) | phytotoxicity rating AMATA ([1]; 0.400 kg/ha): 3 (3 - Moderate effect) | phytotoxicity rating AMATA ([1]; 0.800 kg/ha): 3 (3 - Moderate effect) | phytotoxicity rating ALOMY ([2]; 0.100 kg/ha): 0 (0 - No effect) | phytotoxicity rating ALOMY ([2]; 0.200 kg/ha): 2 (2 - Slight effect) | phytotoxicity rating ALOMY ([2]; 0.400 kg/ha): 5 (5 - Definite injury) | phytotoxicity rating ALOMY ([2]; 0.800 kg/ha): 5 (5 - Definite injury) | phytotoxicity rating APESV ([3]; 0.200 kg/ha): 0 (0 - No effect) | phytotoxicity rating APESV ([3]; 0.400 kg/ha): 0 (0 - No effect) | phytotoxicity rating APESV ([3]; 0.800 kg/ha): 7 (7 - Good herbicidal effect) | phytotoxicity rating ECHCG ([4]; 0.100 kg/ha): 0 (0 - No effect) | phytotoxicity rating ECHCG ([4]; 0.200 kg/ha): 0 (0 - No effect) | phytotoxicity rating ECHCG ([4]; 0.400 kg/ha): 6 (6 - Herbicidal effect) | phytotoxicity rating ECHCG ([4]; 0.800 kg/ha): 9 (9 - Complete kill) | phytotoxicity rating SETVI ([5]; 0.100 kg/ha): 0 (0 - No effect) | phytotoxicity rating SETVI ([5]; 0.200 kg/ha): 0 (0 - No effect) | phytotoxicity rating SETVI ([5]; 0.400 kg/ha): 0 (0 - No effect) | phytotoxicity rating SETVI ([5]; 0.800 kg/ha): 2 (2 - Slight effect) | phytotoxicity rating LOLPE ([6]; 0.100 kg/ha): 0 (0 - No effect) | phytotoxicity rating LOLPE ([6]; 0.200 kg/ha): 0 (0 - No effect) | phytotoxicity rating LOLPE ([6]; 0.400 kg/ha): 3 (3 - Moderate effect) | phytotoxicity rating LOLPE ([6]; 0.800 kg/ha): 9 (9 - Complete kill) | phytotoxicity rating TRZAW ([7]; 0.100 kg/ha): 0 (0 - No effect) | phytotoxicity rating TRZAW ([7]; 0.200 kg/ha): 0 (0 - No effect) | phytotoxicity rating TRZAW ([7]; 0.400 kg/ha): 0 (0 - No effect) | phytotoxicity rating TRZAW ([7]; 0.800 kg/ha): 0 (0 - No effect) | phytotoxicity rating HORVW ([8]; 0.100 kg/ha): 0 (0 - No effect) | phytotoxicity rating HORVW ([8]; 0.200 kg/ha): 0 (0 - No effect) | phytotoxicity rating HORVW ([8]; 0.400 kg/ha): 1 (1 - Trace effect) | phytotoxicity rating HORVW ([8]; 0.800 kg/ha): 1 (1 - Trace effect) | phytotoxicity rating ZEAMX ([9]; 0.100 kg/ha): 0 (0 - No effect) | phytotoxicity rating ZEAMX ([9]; 0.200 kg/ha): 0 (0 - No effect) | phytotoxicity rating ZEAMX ([9]; 0.400 kg/ha): 0 (0 - No effect) | phytotoxicity rating ZEAMX ([9]; 0.800 kg/ha): 1 (1 - Trace effect) | phytotoxicity rating GLXMA ([10]; 0.100 kg/ha): 0 (0 - No effect) | phytotoxicity rating GLXMA ([10]; 0.200 kg/ha): 0 (0 - No effect) | phytotoxicity rating GLXMA ([10]; 0.400 kg/ha): 0 (0 - No effect) | phytotoxicity rating GLXMA ([10]; 0.800 kg/ha): 0 (0 - No effect) | phytotoxicity rating ORYSA ([11]; 0.100 kg/ha): 0 (0 - No effect) | phytotoxicity rating ORYSA ([11]; 0.200 kg/ha): 0 (0 - No effect) | phytotoxicity rating ORYSA ([11]; 0.400 kg/ha): 0 (0 - No effect) | phytotoxicity rating ORYSA ([11]; 0.800 kg/ha): 2 (2 - Slight effect) | phytotoxicity rating AMATA ([12]; 0.100 kg/ha): 3 (3 - Moderate effect) | phytotoxicity rating AMATA ([12]; 0.200 kg/ha): 3 (3 - Moderate effect) | phytotoxicity rating AMATA ([12]; 0.400 kg/ha): 5 (5 - Definite injury) | phytotoxicity rating GALAP ([13]; 0.100 kg/ha): 0 (0 - No effect) | phytotoxicity rating GALAP ([13]; 0.200 kg/ha): 3 (3 - Moderate effect) | phytotoxicity rating GALAP ([13]; 0.400 kg/ha): 5 (5 - Definite injury) | phytotoxicity rating ALOMY ([14]; 0.100 kg/ha): 0 (0 - No effect) | phytotoxicity rating ALOMY ([14]; 0.200 kg/ha): 0 (0 - No effect) | phytotoxicity rating ALOMY ([14]; 0.400 kg/ha): 4 (4 - Injury) | phytotoxicity rating APESV ([15]; 0.100 kg/ha): 0 (0 - No effect) | phytotoxicity rating APESV ([15]; 0.200 kg/ha): 0 (0 - No effect) | phytotoxicity rating APESV ([15]; 0.400 kg/ha): 2 (2 - Slight effect) | phytotoxicity rating ECHCG ([16]; 0.100 kg/ha): 0 (0 - No effect) | phytotoxicity rating ECHCG ([16]; 0.200 kg/ha): 0 (0 - No effect) | phytotoxicity rating ECHCG ([16]; 0.400 kg/ha): 0 (0 - No effect) | phytotoxicity rating SETVI ([17]; 0.100 kg/ha): 0 (0 - No effect) | phytotoxicity rating SETVI ([17]; 0.200 kg/ha): 0 (0 - No effect) | phytotoxicity rating SETVI ([17]; 0.400 kg/ha): 0 (0 - No effect) | phytotoxicity rating LOLPE ([18]; 0.100 kg/ha): 0 (0 - No effect) | phytotoxicity rating LOLPE ([18]; 0.200 kg/ha): 6 (6 - Herbicidal effect) | phytotoxicity rating LOLPE ([18]; 0.400 kg/ha): 6 (6 - Herbicidal effect) | phytotoxicity rating TRZAW ([19]; 0.100 kg/ha): 0 (0 - No effect) | phytotoxicity rating TRZAW ([19]; 0.200 kg/ha): 0 (0 - No effect) | phytotoxicity rating TRZAW ([19]; 0.400 kg/ha): 0 (0 - No effect) | phytotoxicity rating HORVW ([20]; 0.100 kg/ha): 0 (0 - No effect) | phytotoxicity rating HORVW ([20]; 0.200 kg/ha): 0 (0 - No effect) | phytotoxicity rating HORVW ([20]; 0.400 kg/ha): 0 (0 - No effect) | phytotoxicity rating ZEAMX ([21]; 0.100 kg/ha): 0 (0 - No effect) | phytotoxicity rating ZEAMX ([21]; 0.200 kg/ha): 0 (0 - No effect) | phytotoxicity rating ZEAMX ([21]; 0.400 kg/ha): 0 (0 - No effect) | phytotoxicity rating GLXMA ([22]; 0.100 kg/ha): 2 (2 - Slight effect) | phytotoxicity rating GLXMA ([22]; 0.200 kg/ha): 2 (2 - Slight effect) | phytotoxicity rating GLXMA ([22]; 0.400 kg/ha): 5 (5 - Definite injury) | phytotoxicity rating ORYSA ([23]; 0.100 kg/ha): 0 (0 - No effect) | phytotoxicity rating ORYSA ([23]; 0.200 kg/ha): 0 (0 - No effect) | phytotoxicity rating ORYSA ([23]; 0.400 kg/ha): 3 (3 - Moderate effect)
